According to patent US10328092B2, “Methods and compositions for treatment of drug addiction” (The Royal Institution for the Advancement of Learning / …, priority 2015, dated 2019):

Tested on: mice
Test: Cocaine-induced behavioural sensitization, locomotor response
Format: in vivo, mouse
Description: A cocaine induced behavioral sensitization animal model of drug addiction was used. Sensitization refers to the augmentation of behavioral responses to drugs of abuse that occurs during their repeated administration and persists long after drug exposure is discontinued. In this paradigm mice are injected with 15 mg/kg cocaine and put in an open field box and measure the cocaine stimulatory effects on locomotor for 15 min. After the first run mice are injected with 10 ug of MPL and returned to their home cage.
The response of mice to repeated doses of cocaine was compared. After habituating animals to handling, the animals receive an IP injection and have their locomotor activity monitored in open-field chambers using Ethovision software for 15 min. After two days of saline injections, mice received five daily injections of cocaine (15 mg/kg) and assayed for locomotion. Following 7-10 days without injections (withdrawal), mice receive a challenge dose of cocaine (also 15 mg/kg) and locomotor activity again assessed (see Examples 1 and 2). A minimum of three separate cohorts have been run.
Locomotion was monitored in 30×30 cm plexiglass boxes by the EthoVision video-tracking system (Noldus) and performed near the end of the light phase of the light-dark cycle under dim red light. After habituating animals to handling, mice received IP injections of saline or cocaine and their activity was recorded for 15 min. Mice were tested during habituation to injection and the activity boxes (saline; days 1-2) and 5 repeated cocaine injections (15 mg/kg; days 3-7). Following 10 days without injections (withdrawal), mice receive a challenge dose of cocaine (15 mg/kg) and locomotor activity again assessed (day 17). Total distance traveled and stereotypy were evaluated from video by EthoVision. For stereotypy, the frequency of which the mouse stops moving (#pauses/min) was measured using a threshold start velocity of 2.00/second and a threshold stop velocity of 0 cm/s. The number of turns per minute (# turns/min) was measured by calculating the frequency for which the path of the mouse turns over a minimum distance of 3.00 cm. Velocity was assessed as the mean distance traveled (cm) over time (s).
Mice were treated for […] with saline (1,2), then 5 consecutive days with 15 mg/kg cocaine (3-7). Animals then underwent a 9 day withdrawal period from cocaine. On day 9, they received an injection of saline or 50 μg/kg of LPS. 24 hours later, the mice were retested for the locomotor response in terms of distance (cm) traveled in 15 minutes.

## monophosphoryl lipid A [MPLA]
7 daily saline injections, 9 days abstinence, MPLA 10 μg, cocaine 15 mg/kg next day
  initial response to cocaine challenge dose: did not alter
TNFα−/− mice, MPLA 10 μg
  locomotor response to a challenge dose of cocaine: did not reduce
TNFα−/− mice, MPLA 10 ug IP after first cocaine 15 mg/kg, re-tested one day later
  behavioral sensitization to cocaine: no effect
WT mice, 10 days withdrawal, single MPLA 10 μg, tested 4 days later
  behavioral response to cocaine: did not reduce
Wildtype mice after withdrawal, MPLA 10 μg or 50 μg, tested 24 hours later, cocaine 15 mg/kg
  behavioral (locomotor) response to cocaine challenge: dose dependently reduced
Wildtype mice, MPLA 10 ug IP after first cocaine 15 mg/kg, re-tested 24 hours later
  behavioral sensitization to cocaine vs saline treated mice: reduced
